{"source": "patent US20100272717A1", "about": "“COMBINATIONS OF THERAPEUTIC AGENTS FOR TREATING CANCER” (NOVARTIS AG, priority 2007, published 2010)", "type_in_all_cases": "in vivo", "key": {"[1]": {"tested_on": "MCF-7 human breast adenocarcinoma xenograft", "test": "MCF-7 human breast adenocarcinoma xenograft model, anti-tumor activity and tolerability", "details": "for anti-tumor activity: FIG. 6 experiment, dose not stated", "text": "A+B, the following formulae can be applied: synergy−(AB)/C<(A/C)×B/C), additive−(AB)/C=(A/C)×(B/C) and antagonistic−(AB)/C>(A/C)×(B/C). […] For example if, the triple combination of A+B+C is to be compared to the activity of the three agents given alone then taking D to be the activity of the vehicle controls the formula defining synergy would be (ABC)/D<(A/D)×(B/D)×(C/D)."}, "[2]": {"tested_on": "BT-474 human breast ductal carcinoma xenograft", "test": "BT-474 human breast ductal carcinoma xenograft model, anti-tumor activity and tolerability", "details": "FIG. 7; Compound A 20 mg/kg intravenously on days 1, 5 and 9", "text": "(§1) Interactions of combinations can be approximated using a combination index presented by Clark (Breast Cancer Research and Treatment 46, 255-278 (1997)). Taking A to be the activity (T/C) of compound A given alone; B to be the activity of compound B given alone; C the activity in the vehicle controls and AB to be the activity in the combination. A+B, the following formulae can be applied: synergy−(AB)/C<(A/C)×B/C), additive−(AB)/C=(A/C)×(B/C) and antagonistic−(AB)/C>(A/C)×(B/C). […] For example if, the triple combination of A+B+C is to be compared to the activity of the three agents given alone then taking D to be the activity of the vehicle controls the formula defining synergy would be (ABC)/D<(A/D)×(B/D)×(C/D)."}, "[3]": {"tested_on": "MDA-MB-231 human breast adenocarcinoma xenograft", "test": "MDA-MB-231 human breast adenocarcinoma xenograft model, anti-tumor activity and tolerability", "details": "FIG. 1", "experimental": "The effect of 5,6-dimethylxanthenone-4-acetic acid (Compound A) and 2-methyl-2-[4-(3-methyl-2-oxo-8-quinolin-3-yl-2,3-dihydro-imidazo[4,5-c]quinolin-1-yl)-phenyl]-propionitrile (Compound B) are evaluated for their anti-tumor activity using the MDA-MB-231 human breast adenocarcinoma xenograft model.\nas §1"}, "[4]": {"tested_on": "A549 human non-small cell lung carcinoma xenograft", "test": "A549 human non-small cell lung carcinoma xenograft model, anti-tumor activity and tolerability", "text": "as §1\nThe effects of Compound A and Compound B are evaluated for their anti-tumor activity using the A549 human non-small cell lung carcinoma xenograft model.\nThe effects of 5,6-dimethylxanthenone-4-acetic acid (Compound A) and 4-amino-5-fluoro-3-[5-(4-methylpiperazin-1-yl)-1H-benzimidazol-2-yl]quinolin-2(1H)-one (Compound C) are evaluated for their anti-tumor activity using the A549 human non-small cell lung carcinoma xenograft model.\nThe effects of 5,6-dimethylxanthenone-4-acetic acid (Compound A) and everolimus are evaluated for their anti-tumor activity using the A549 human non-small cell lung carcinoma xenograft model.\nThe effect of 5,6-dimethylxanthenone-4-acetic acid (Compound A) and patupilone are evaluated for their anti-tumor activity using the A549 human non-small cell lung carcinoma xenograft model."}}, "data": [{"compound": "CC(=O)O[C@@]12CO[C@@H]1C[C@H](O)[C@@]1(C)C(=O)[C@H](O)C3=C(C)[C@@H](OC(=O)[C@H](O)[C@@H](NC(=O)OC(C)(C)C)c4ccccc4)C[C@@](O)([C@@H](OC(=O)c4ccccc4)[C@H]21)C3(C)C", "note": "[docetaxel, reference compound]", "values": [{"measurement": "anti-tumor activity", "setting": "[1]", "value": "inhibition of tumor growth"}]}, {"compound": "Cc1ccc2c(=O)c3cccc(CC(=O)O)c3oc2c1C", "note": "[Compound A, 5,6-dimethylxanthenone-4-acetic acid]", "values": [{"measurement": "anti-tumor activity (tumor growth)", "setting": "[2]", "value": "inhibition of tumor growth"}, {"measurement": "anti-tumor activity (tumor growth)", "setting": "[3]; Compound A 18.6 mg/kg intravenously on days 1, 5 and 9", "value": "inhibition of tumor growth"}, {"measurement": "anti-tumor activity (tumor growth)", "setting": "[4]; in vivo, ip, 15 mg/kg", "value": "inhibition of tumor growth"}, {"measurement": "anti-tumor activity (tumor growth)", "setting": "[1]; FIG. 6, Compound A 20 mg/kg intravenously on days 1, 5 and 9", "value": "inhibition of tumor growth"}]}, {"compound": "C/C(=C\\c1csc(C)n1)[C@@H]1C[C@@H]2O[C@]2(C)CCC[C@H](C)[C@H](O)[C@@H](C)C(=O)C(C)(C)[C@@H](O)CC(=O)O1", "note": "[patupilone, (1S,3S,7S,10R,11S,12S,16R,1′E)-7,11-dihydroxy-8,8,10,12,16-pentamethyl-3-[methyl-2-(2-methylthiazol-4-yl)-vinyl]-4,17-dioxabicyclo[14.1.0]heptadecane-5,9-dione, reference compound]", "values": [{"measurement": "anti-tumor activity (tumor growth)", "setting": "[4]; FIG. 5, patupilone 2 mg/kg intravenously", "value": "inhibition of tumor growth"}]}, {"compound": "bevacizumab: monoclonal antibody, marketed as AVASTIN", "values": [{"measurement": "anti-tumor activity", "setting": "[1]", "value": "no anti-tumor activity"}]}, {"compound": "CN1CCN(c2ccc3[nH]c(-c4c(N)c5c(F)cccc5[nH]c4=O)nc3c2)CC1", "note": "[Compound C, 4-amino-5-fluoro-3-[5-(4-methylpiperazin-1-yl)-1H-benzimidazol-2-yl]quinolin-2(1H)-one]", "values": [{"measurement": "anti-tumor activity", "setting": "[4]; in vivo", "value": "dose-dependent activity"}]}, {"compound": "Cn1c(=O)n(-c2ccc(C(C)(C)C#N)cc2)c2c3cc(-c4cnc5ccccc5c4)ccc3ncc21", "note": "[Compound B, 2-methyl-2-[4-(3-methyl-2-oxo-8-quinolin-3-yl-2,3-dihydro-imidazo[4,5-c]quinolin-1-yl)-phenyl]-propionitrile]", "values": [{"measurement": "anti-tumor activity (tumor growth)", "setting": "[3]; Compound B alone, several dose levels", "value": "dose-dependent inhibition of tumor growth"}, {"measurement": "anti-tumor activity", "setting": "[4]; FIG. 2, Compound B alone, 20 mg/kg", "value": "shows activity"}]}]}
